Among the data in DBAASP are MIC values, retold here.

≈ marks a conversion by molar mass, not a printed value. Some results are limits rather than exact numbers.

Test systems include Bacillus subtilis 168; Escherichia coli K-12; Escherichia coli UB1005.
Test in all cases: ≥ marks a high value that may be exact or a test limit, other limits are often not marked, values filed in µg/mL are converted to µM
Experiment [1] concerns Pseudomonas aeruginosa PAO1.
Experiment [2] concerns Staphylococcus aureus USA 300.
The test system of experiment [3] is Bacillus subtilis ATCC 23857.
Experiment [4] has as its system Escherichia coli ATCC 25922.
For experiment [5], the system named is Enterococcus faecalis ATCC 29212.
Experiment [6] has as its system Staphylococcus epidermidis ATCC 12228.
Experiment [7] relates to Acinetobacter baumannii ATCC 19606.
For experiment [8], the system named is Pseudomonas aeruginosa ATCC 27853.
Experiment [9] has as its system Staphylococcus aureus ATCC 25923.
Experiment [10] deals with Klebsiella pneumoniae ATCC 700603.
Experiment [11] concerns Salmonella enterica subsp. enterica serovar Typhimurium C77-31.
The subject of experiment [12] is Staphylococcus aureus ATCC 29213.
Experiment [13] concerns Escherichia coli KCTC 1682.
Experiment [14] relates to Pseudomonas aeruginosa KCTC 1637.
Experiment [15] has as its system Staphylococcus epidermidis KCTC 1917.
For experiment [16], the system named is Staphylococcus aureus KCTC 1621.
Experiment [17] deals with Salmonella typhimurium KCTC 1926.
The subject of experiment [18] is Bacillus subtilis KCTC 3068.
Experiment [19] deals with Salmonella enterica serovar Typhimurium.

As a reminder, the MIC is the lowest concentration that inhibits growth of the organism. Read a low MIC as greater potency. As to `CC(C)C[C@H](NC(=O)[C@H](CC(C)C)NC(=O)[C@H](CCCCN)NC(=O)[C@@H]1CCCN1C(=O)[C@H](CC(C)C)NC(=O)[C@H](CC(C)C)NC(=O)[C@H](CCCCN)NC(=O)[C@H](CC(C)C)NC(=O)[C@H](CC(C)C)NC(=O)[C@H](CO)NC(=O)CNC(=O)[C@H](Cc1ccccc1)NC(=O)[C@@H](N)Cc1ccccc1)C(N)=O` [FFGSLLKLLPKLL], the MIC stood at 70.7 µM (≈ 105 µg/mL) in experiment [1], 1.1 µM (≈ 1.64 µg/mL) in experiment [2], 3.12 µM (≈ 4.64 µg/mL) against Bacillus subtilis 168 and 12.5 µM (≈ 18.6 µg/mL) with Escherichia coli K-12.

Turning to `CC(C)C[C@H](NC(=O)[C@H](C)NC(=O)[C@@H](NC(=O)[C@H](CCCCN)NC(=O)[C@H](C)NC(=O)[C@H](CCCN=C(N)N)NC(=O)[C@H](CCCCN)NC(=O)[C@H](C)NC(=O)[C@H](C)NC(=O)CN)[C@@H](C)O)C(N)=O` [GAAKRAKTAL], the MIC is at least 512 µM in [3]; over 512 µM in experiment [4]; over 512 µM in experiment [5]; over 512 µM in experiment [6]; over 512 µM in experiment [7]; over 512 µM in experiment [8]. Moreover, the minimum inhibitory concentration (MIC) in experiment [9] and in experiment [10] was over 512 µM in each case.

In the case of `CC[C@H](C)[C@H](NC(=O)CN)C(=O)N[C@H](C(=O)N[C@@H](C)C(=O)NCC(=O)N[C@H](C(=O)N[C@H](C(=O)N[C@@H](CCCCN)C(=O)N[C@H](C(=O)N[C@H](C(=O)N[C@@H](CCCCN)C(=O)N[C@@H](C)C(N)=O)[C@@H](C)CC)[C@@H](C)CC)[C@@H](C)CC)[C@@H](C)CC)[C@@H](C)CC` [GIIAGIIKIIKA], the MIC is 16 µM (≈ 19.3 µg/mL) in experiment [3] and over 128 µM in [4].

`CC[C@H](C)[C@H](NC(=O)[C@H](CCCCN)NC(=O)[C@H](CCCCN)NC(=O)[C@H](CC(C)C)NC(=O)[C@@H](NC(=O)[C@H](CCCCN)NC(=O)CNC(=O)[C@@H](NC(=O)[C@H](CCCCN)NC(=O)[C@H](CCCCN)NC(=O)[C@H](CC(C)C)NC(=O)[C@H](CCCN=C(N)N)NC(=O)[C@H](CCCCN)NC(=O)[C@H](CCCN=C(N)N)NC(=O)[C@@H](NC(=O)[C@H](CCCCN)NC(=O)[C@H](CCCCN)NC(=O)[C@H](CCCN=C(N)N)NC(=O)[C@H](CC(C)C)NC(=O)[C@H](CCCN=C(N)N)NC(=O)[C@H](CCCN=C(N)N)NC(=O)[C@H](Cc1ccccc1)NC(=O)[C@H](CCCN=C(N)N)NC(=O)CN)[C@@H](C)O)[C@@H](C)CC)C(C)C)C(N)=O` [GRFRRLRKKTRKRLKKIGKVLKKI]: the MIC in [11] is at least 128 µM; in experiment [4] it was 32 µM (≈ 96.2 µg/mL); in [6], 32 µM (≈ 96.2 µg/mL); in the experiment on Escherichia coli UB1005 it was 16 µM (≈ 48.1 µg/mL); in experiment [9], 64 µM (≈ 192 µg/mL); in experiment [12] it was 32 µM (≈ 96.2 µg/mL).

With `CC[C@H](C)[C@H](N)C(=O)N[C@@H](CC(C)C)C(=O)NCC(=O)N[C@@H](CCCCN)C(=O)N[C@H](C(=O)N[C@@H](CC(C)C)C(=O)N[C@@H](CCCCN)C(=O)NCC(=O)N[C@H](C(=O)N[C@@H](CCCCN)C(=O)N[C@@H](CCCCN)C(=O)N[C@@H](CC(C)C)C(=O)N[C@@H](Cc1ccccc1)C(N)=O)[C@@H](C)CC)[C@@H](C)CC` [ILGKILKGIKKLF], the MIC in experiment [13] was 2 µM (≈ 2.94 µg/mL); in experiment [14], 2 µM (≈ 2.94 µg/mL); in experiment [15] it was 1 µM (≈ 1.47 µg/mL); in experiment [16] it was 2 µM (≈ 2.94 µg/mL); in [17], 1 µM (≈ 1.47 µg/mL).

As for `CC[C@H](C)[C@H](N)C(=O)N[C@@H](Cc1c[nH]c2ccccc12)C(=O)N[C@@H](CC(C)C)C(=O)N[C@H](C(=O)N[C@@H](C)C(=O)N[C@@H](CC(C)C)C(=O)N[C@@H](CCCCN)C(=O)N[C@@H](Cc1ccccc1)C(=O)N[C@@H](CC(C)C)C(=O)NCC(=O)N[C@@H](CCCCN)C(=O)N[C@@H](Cc1cnc[nH]1)C(=O)N[C@@H](C)C(=O)N[C@@H](C)C(=O)N[C@@H](CCCCN)C(=O)N[C@@H](Cc1cnc[nH]1)C(=O)N[C@@H](CC(C)C)C(=O)N[C@@H](C)C(=O)N[C@@H](CCCCN)C(=O)N[C@@H](CCC(N)=O)C(=O)N[C@@H](CCC(N)=O)C(=O)N[C@@H](CC(C)C)C(=O)N[C@@H](CO)C(=O)N[C@@H](CCCCN)C(=O)N[C@@H](CC(C)C)C(=O)O)[C@@H](C)O` [IWLTALKFLGKHAAKHLAKQQLSKL], the MIC came to 25 µM (≈ 71.1 µg/mL) in experiment [1], 3.1 µM (≈ 8.82 µg/mL) in experiment [2], 6.25 µM (≈ 17.8 µg/mL) against Bacillus subtilis 168 and 25 µM (≈ 71.1 µg/mL) against Escherichia coli K-12.

Regarding `NCCCC[C@H](NC(=O)[C@H](CCCCN)NC(=O)[C@H](Cc1c[nH]c2ccccc12)NC(=O)[C@H](CCCCN)NC(=O)[C@@H]1CCCN1C(=O)[C@H](Cc1c[nH]c2ccccc12)NC(=O)[C@H](Cc1c[nH]c2ccccc12)NC(=O)[C@@H]1CCCN1C(=O)[C@H](CCCCN)NC(=O)[C@H](Cc1c[nH]c2ccccc12)NC(=O)[C@H](Cc1c[nH]c2ccccc12)NC(=O)[C@@H]1CCCN1C(=O)[C@H](CCCCN)NC(=O)[C@@H](N)CCCCN)C(=O)O` [KKPWWKPWWPKWKK], the MIC in experiment [13] amounted to 2 µM (≈ 4.02 µg/mL); in [14], 4 µM (≈ 8.04 µg/mL); in experiment [18], 1 µM (≈ 2.01 µg/mL); in experiment [15], 1 µM (≈ 2.01 µg/mL); in experiment [16] it was 2 µM (≈ 4.02 µg/mL); in [17] it was 2 µM (≈ 4.02 µg/mL).

`CC(C)C[C@H](NC(=O)[C@H](CC(C)C)NC(=O)[C@H](CCCCN)NC(=O)[C@@H]1CCCN1C(=O)[C@H](CC(C)C)NC(=O)[C@H](CC(C)C)NC(=O)[C@H](CCCCN)NC(=O)[C@H](CC(C)C)NC(=O)[C@H](CC(C)C)NC(=O)[C@H](CO)NC(=O)CNC(=O)[C@H](CC(C)C)NC(=O)[C@@H](N)CC(C)C)C(N)=O` [LLGSLLKLLPKLL]: the MIC was over 100 µM in experiment [1], 1.1 µM (≈ 1.57 µg/mL) in experiment [2], 3.12 µM (≈ 4.43 µg/mL) in the experiment with Bacillus subtilis 168 and 12.5 µM (≈ 17.7 µg/mL) against Escherichia coli K-12.

Turning to `CC[C@H](C)[C@H](NC(=O)[C@H](CCCCN)NC(=O)[C@H](CCCCN)NC(=O)[C@H](CC(C)C)NC(=O)[C@H](CCCN=C(N)N)NC(=O)[C@H](CC(=O)O)NC(=O)[C@H](CCCN=C(N)N)NC(=O)[C@@H](NC(=O)[C@H](CCCCN)NC(=O)[C@H](CC(=O)O)NC(=O)[C@H](CCCN=C(N)N)NC(=O)[C@H](CC(C)C)NC(=O)[C@H](CCCN=C(N)N)NC(=O)[C@H](CCCN=C(N)N)NC(=O)[C@H](Cc1ccccc1)NC(=O)[C@@H](N)CCCN=C(N)N)[C@@H](C)O)C(N)=O` [RFRRLRDKTRDRLKKI], the MIC in experiment [11] is at least 128 µM; in [4], over 128 µM; in experiment [5], over 128 µM; in [6] it was over 128 µM; with Escherichia coli UB1005, at least 128 µM; in [12], over 128 µM.

For the compound `CC[C@H](C)[C@H](NC(=O)[C@H](CCCN=C(N)N)NC(=O)[C@H](Cc1c[nH]c2ccccc12)NC(=O)[C@H](CC(C)C)NC(=O)[C@@H](N)CCCN=C(N)N)C(=O)N[C@H](C(=O)N[C@H](C(=O)N[C@H](C(=O)N[C@@H](CCCN=C(N)N)C(=O)N[C@H](C(=O)N[C@@H](Cc1c[nH]c2ccccc12)C(=O)N[C@@H](CCCN=C(N)N)C(N)=O)C(C)C)[C@@H](C)CC)C(C)C)C(C)C` [RLWRIVVIRVWR], the MIC in experiment [13] was 30.3 µM (≈ 50 µg/mL); in [14] it was 15.1 µM (≈ 25 µg/mL); in experiment [18], 30.3 µM (≈ 50 µg/mL); in experiment [15], 15.1 µM (≈ 25 µg/mL); in experiment [16] it was 15.1 µM (≈ 25 µg/mL); in [17], 15.1 µM (≈ 25 µg/mL).

With `CC(C)C[C@H](NC(=O)[C@H](CCCN=C(N)N)NC(=O)[C@H](CCCCN)NC(=O)[C@H](Cc1c[nH]c2ccccc12)NC(=O)[C@@H](NC(=O)[C@H](CCCCN)NC(=O)[C@H](CCCCN)NC(=O)[C@H](Cc1c[nH]c2ccccc12)NC(=O)[C@H](CC(C)C)NC(=O)[C@H](CCCN=C(N)N)NC(=O)[C@@H](N)CCCN=C(N)N)[C@@H](C)O)C(=O)N[C@@H](Cc1c[nH]c2ccccc12)C(N)=O` [RRLWKKTWKRLW], the MIC worked out at 8 µM (≈ 14 µg/mL) in [11]; 4 µM (≈ 7.02 µg/mL) in [4]; 8 µM (≈ 14 µg/mL) in experiment [6]; 4 µM (≈ 7.02 µg/mL) with Escherichia coli UB1005; 16 µM (≈ 28.1 µg/mL) in experiment [9]; 8 µM (≈ 14 µg/mL) in [12].

Turning to `CC[C@H](C)[C@H](NC(=O)[C@H](CCCN=C(N)N)NC(=O)[C@H](Cc1c[nH]c2ccccc12)NC(=O)[C@H](CS)NC(=O)[C@@H](N)C(C)C)C(=O)N[C@@H](CCCN=C(N)N)C(=O)N[C@H](C(=O)N[C@@H](C)C(=O)N[C@H](C(=O)N[C@H](C(=O)N[C@@H](CCCN=C(N)N)C(=O)N[C@@H](C)C(=O)O)[C@@H](C)CC)C(C)C)C(C)C` [VCWRIRVAVIRA], the MIC in [1] is 44.4 µM (≈ 64 µg/mL); in experiment [4], 44.4 µM (≈ 64 µg/mL); in [19], at least 44.4 µM; in [9], 22.2 µM (≈ 32 µg/mL).
